{
  "source": "patent US20240376094A2",
  "about": "“SELECTIVE BCL-XL PROTAC COMPOUNDS AND METHODS OF USE” (Les Laboratoires Servier, priority 2021, published 2024)",
  "key": {"[1]": {"test_system": "MOLT-4 cells", "experiment": "MOLT-4 cell viability, MTT assay", "format": "cell-based", "conditions": "Homo sapiens, MOLT-4, 48 h", "excerpt": "The MTT colorimetric assay is based on the mitochondrial reduction of tetrazolium salt by living cells. The viable cell number is proportional to the production of formazan salts, which can be read spectrophotometrically at 540 nm. The CTG luminescent assay (CellTiter GLO, Promega) is based on a reagent which lyses cells and measures total adenosine triphosphate (ATP) content. The viable cell number is proportional to the production of ATP.\nMOLT-4 cells were purchased from ATCC and cultivated in RPMI 1640 supplemented with 10% heat inactivated fetal bovine serum, penicillin (100 IU/mi), streptomycin (100 μg/ml) and L-glutamine (2 mM). Cells were cultured at 37° C. in a humidified atmosphere containing 5% […].\nFor MTT assay, cells were seeded in 96 microwell plates (150 μL per well) and exposed to the compounds for 48 h (3.16 fold serially diluted; 9 concentrations each, triplicates). At the end of incubation time, 15 μL of MTT solution (5 mg/ml) were added per well and the cells were incubated for another 4 h. Then, 100 μL of 10% Sodium Dodecyl Sulfate (SDS)/HCl 10 mM were added per well and the plate was incubated overnight, before measurement of optical density at 540 nm.\nIC50, were calculated using standard four-parametric curve fitting. IC50 is defined as the compound concentration at which the MTT or CTG signal is reduced to 50% of that measured for the control. Results shown in Table 14 represent the mean of at least 2 independent experiments."}, "[2]": {"molecular_target": "T1, Bcl-xL (Homo sapiens, UniProt Q07817)", "T1 construct": "Measured levels of Bcl-xL protein of HCT116 cells treated with the tested compounds; host or cells: HCT116", "T1 sequence (Q07817 whole entry)": "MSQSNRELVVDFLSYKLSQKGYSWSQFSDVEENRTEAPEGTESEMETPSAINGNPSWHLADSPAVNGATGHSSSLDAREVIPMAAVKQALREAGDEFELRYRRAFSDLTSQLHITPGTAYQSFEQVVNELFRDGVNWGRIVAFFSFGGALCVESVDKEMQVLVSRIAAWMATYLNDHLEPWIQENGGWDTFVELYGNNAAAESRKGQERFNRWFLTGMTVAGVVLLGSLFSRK", "experiment": "HCT116 Bcl-xL degradation, capillary-based immunoassay (WES)", "format": "cell-based", "conditions": "for DC50: HCT116, 24 h, 9-point serial dilution; for remaining activity at 0.01 µM / remaining activity at 0.1 µM: HCT-116, 24 h, % of untreated cells; for remaining activity at 0.01 µM: HCT116, 10 nM; for remaining activity at 0.1 µM: HCT116, 100 nM", "in_short": "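Bcl-xL protein level by capillary WES immunoassay in HCT116 lysates, as % of untreated after cofilin normalization. Compound exposure was 24 h at 10 and 100 nM and/or a 9-point series, in quadruplicate. Four-parameter fitting gave the DC50.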"}},
  "data": [
    {"smiles": "Cc1cc(N(CCCCCn2cc(COCCOCCNc3cccc4c3C(=O)N(C3CCC(=O)NC3=O)C4=O)nn2)c2ccc(-c3cnn(CC45CC6(C)CC(C)(C4)CC(OCCN(C)C)(C6)C5)c3C)c(C(=O)O)n2)nnc1Nc1nc2ccccc2s1", "note": "(stereo not drawn) [Example 61, 6-[[6-(1,3-benzothiazol-2-ylamino)-5-methyl-pyridazin-3-yl]-[5-[4-[2-[2-[[2-(2,6-dioxo-3-piperidyl)-1,3-dioxo-isoindolin-4-yl]amino]ethoxy]ethoxymethyl]triazol-1-yl]pentyl]amino]-3-[1-[[3-[2-(dimethylamino)ethoxy]-5,7-dimethyl-1-adamantyl]methyl]-5-methyl-pyrazol-4-yl]pyridine-2-carboxylic acid]", "values": [
      {"measurement": "IC50", "setting": "[1]", "value": 16.4, "unit": "nM"},
      {"measurement": "DC50", "setting": "[2]", "value": 7.49, "unit": "nM"},
      {"measurement": "remaining activity at 0.01 µM", "setting": "[2]", "value": 46, "unit": "%"},
      {"measurement": "remaining activity at 0.1 µM", "setting": "[2]", "value": 16, "unit": "%"}
    ]},
    {"smiles": "Cc1cc(N(CCCCCn2cc(COCCOCCOCC(=O)Nc3cccc4c3CN(C3CCC(=O)NC3=O)C4=O)nn2)c2ccc(-c3cnn(CC45CC6(C)CC(C)(C4)CC(OCCN(C)C)(C6)C5)c3C)c(C(=O)O)n2)nnc1Nc1nc2ccccc2s1", "note": "(stereo not drawn) [Example 28, 6-[[6-(1,3-benzothiazol-2-ylamino)-5-methyl-pyridazin-3-yl]-[5-[4-[2-[2-[2-[[2-(2,6-dioxo-3-piperidyl)-1-oxo-isoindolin-4-yl]amino]-2-oxo-ethoxy]ethoxy]ethoxymethyl]triazol-1-yl]pentyl]amino]-3-[1-[[3-[2-(dimethylamino)ethoxy]-5,7-dimethyl-1-adamantyl]methyl]-5-methyl-pyrazol-4-yl]pyridine-2-carboxylic acid]", "values": [
      {"measurement": "IC50", "setting": "[1]", "value": 8.63, "unit": "nM"},
      {"measurement": "remaining activity at 0.01 µM", "setting": "[2]", "value": 81, "unit": "%"},
      {"measurement": "remaining activity at 0.1 µM", "setting": "[2]", "value": 46, "unit": "%"}
    ]},
    {"smiles": "Cc1cc(N(CCCCCn2cc(COCCOCCOCCNC(=O)COc3cccc4c3C(=O)N(C3CCC(=O)NC3=O)C4=O)nn2)c2ccc(-c3cnn(CC45CC6(C)CC(C)(C4)CC(OCCN(C)C)(C6)C5)c3C)c(C(=O)O)n2)nnc1Nc1nc2ccccc2s1", "note": "(stereo not drawn) [Example 63, 6-[[6-(1,3-benzothiazol-2-ylamino)-5-methyl-pyridazin-3-yl]-[5-[4-[2-[2-[2-[[2-[2-(2,6-dioxo-3-piperidyl)-1,3-dioxo-isoindolin-4-yl]oxyacetyl]amino]ethoxy]ethoxy]ethoxymethyl]triazol-1-yl]pentyl]amino]-3-[1-[[3-[2-(dimethylamino)ethoxy]-5,7-dimethyl-1-adamantyl]methyl]-5-methyl-pyrazol-4-yl]pyridine-2-carboxylic acid]", "values": [
      {"measurement": "IC50", "setting": "[1]", "value": 86.4, "unit": "nM"},
      {"measurement": "DC50", "setting": "[2]", "value": 53, "unit": "nM"},
      {"measurement": "remaining activity at 0.01 µM", "setting": "[2]", "value": 61, "unit": "%"},
      {"measurement": "remaining activity at 0.1 µM", "setting": "[2]", "value": 39, "unit": "%"}
    ]},
    {"smiles": "Cc1c(Nc2nc3ccccc3s2)nnc2c1CCCN2c1ccc(-c2cnn(CC34CC5(C)CC(C)(C3)CC(OCCN(C)CCCCCCCCOc3ccc6c(c3)C(=O)N(C3CCC(=O)NC3=O)C6=O)(C5)C4)c2C)c(C(=O)O)n1", "note": "(stereo not drawn) [Example 10, 6-[3-(1,3-benzothiazol-2-ylamino)-4-methyl-6,7-dihydro-5H-pyrido[2,3-c]pyridazin-8-yl]-3-[1-[[3-[2-[8-[2-(2,6-dioxo-3-piperidyl)-1,3-dioxo-isoindolin-5-yl]oxyoctyl-methyl-amino]ethoxy]-5,7-dimethyl-1-adamantyl]methyl]-5-methyl-pyrazol-4-yl]pyridine-2-carboxylic acid]", "values": [
      {"measurement": "IC50", "setting": "[1]", "value": 0.398, "unit": "nM"},
      {"measurement": "DC50", "setting": "[2]", "value": "> 316", "unit": "nM"},
      {"measurement": "remaining activity at 0.01 µM", "setting": "[2]", "value": 48, "unit": "%"},
      {"measurement": "remaining activity at 0.1 µM", "setting": "[2]", "value": 43, "unit": "%"}
    ]},
    {"smiles": "Cc1cc(N(CCCCCn2cc(COCCOCCOCCOCCNc3cccc4c3C(=O)N(C3CCC(=O)NC3=O)C4=O)nn2)c2ccc(-c3cnn(CC45CC6(C)CC(C)(C4)CC(OCCN(C)C)(C6)C5)c3C)c(C(=O)O)n2)nnc1Nc1nc2ccccc2s1", "note": "(stereo not drawn) [Example 153, 6-[[6-(1,3-benzothiazol-2-ylamino)-5-methyl-pyridazin-3-yl]-[5-[4-[2-[2-[2-[2-[[2-(2,6-dioxo-3-piperidyl)-1,3-dioxo-isoindolin-4-yl]amino]ethoxy]ethoxy]ethoxy]ethoxymethyl]triazol-1-yl]pentyl]amino]-3-[1-[[3-[2-(dimethylamino)ethoxy]-5,7-dimethyl-1-adamantyl]methyl]-5-methyl-pyrazol-4-yl]pyridine-2-carboxylic acid]", "values": [
      {"measurement": "IC50", "setting": "[1]", "value": 27.5, "unit": "nM"},
      {"measurement": "remaining activity at 0.01 µM", "setting": "[2]", "value": 59, "unit": "%"},
      {"measurement": "remaining activity at 0.1 µM", "setting": "[2]", "value": 40, "unit": "%"}
    ]}
  ]
}
